From patent US10961215B2, “N-aryl and N-heteroaryl piperidine derivatives as liver X receptor beta agonists, compositions, and their use” (Merck Sharp & Dohme Corp., priority 2016, dated 2021) come the findings set out here.

For experiment [1], the target named is T1, GST tagged LXRalpha LBD (ligand binding domain) (Homo sapiens, UniProt Q13133).
T1 construct: purchased Invitrogen pv4655
T1 sequence (Q13133 209-447 limits assumed): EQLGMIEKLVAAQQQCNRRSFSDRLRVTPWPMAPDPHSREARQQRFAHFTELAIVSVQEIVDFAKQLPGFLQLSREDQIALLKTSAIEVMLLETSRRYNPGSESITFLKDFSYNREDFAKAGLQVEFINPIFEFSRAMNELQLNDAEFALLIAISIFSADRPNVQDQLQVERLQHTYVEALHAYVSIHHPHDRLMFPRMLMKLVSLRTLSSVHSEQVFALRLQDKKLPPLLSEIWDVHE
Kind of experiment: LanthaScreen TR-FRET Liver X Receptor Coactivator Assay, LXR alpha-LBD (co-activator recruitment; IP and % Emax relative to T0901317). In kind it is biochemical. Conditions: for EC50 / LXR alpha IP (nM): Inflection Point of co-activator recruitment, LXR alpha-LBD, TR-FRET; for Emax: efficacy at max dose in relation to reference T0901317, LXR alpha-LBD, read-out: LXR alpha actiivty at max dose (%). In a few lines: (§1)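 Potency as inflection point and efficacy as Emax come from compound-driven coactivator peptide recruitment, scaled to T0901317, using a terbium/fluorescein TR-FRET format after room-temperature incubation.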

The target of experiment [2] is T2, GST tagged LXRbeta LBD (ligand binding domain) (Homo sapiens, UniProt P55055).
T2 construct: purchased Invitrogen pv4658.pps
T2 sequence (P55055 222-460 limits assumed): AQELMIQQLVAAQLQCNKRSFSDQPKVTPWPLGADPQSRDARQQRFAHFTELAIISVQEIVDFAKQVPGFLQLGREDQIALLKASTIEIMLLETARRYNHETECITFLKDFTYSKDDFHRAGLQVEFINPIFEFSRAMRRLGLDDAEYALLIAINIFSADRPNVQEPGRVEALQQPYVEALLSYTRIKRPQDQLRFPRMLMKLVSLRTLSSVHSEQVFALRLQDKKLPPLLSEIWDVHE
Kind of experiment: LanthaScreen TR-FRET Liver X Receptor Coactivator Assay, LXR beta-LBD (co-activator recruitment; IP and % Emax relative to T0901317). In kind it is biochemical. As to conditions: for EC50: Inflection Point of co-activator recruitment, LXR beta-LBD, TR-FRET; for Emax: efficacy at max dose in relation to reference T0901317, LXR beta-LBD, read-out: LXR beta actiivty at max dose (%). In a few lines: as §1
A general note: In TR-FRET formats the signal depends on donor and acceptor labels being close together.

The EC50 is the concentration giving half of the maximal effect. High values mean a need for much substance, low ones an effect from little substance. `COc1cccc([C@@](O)(C(=O)N(C)CCCC2CCN(c3ccc(C(=O)N4CC[C@H](CO)C4)c(Cl)n3)CC2)C(F)(F)F)c1` [Example 2-8, (R)-N-(3-(1-(6-chloro-5-((S)-3-(hydroxymethyl)pyrrolidine-1-carbonyl)pyridin-2-yl)piperidin-4-yl)propyl)-3,3,3-trifluoro-2-hydroxy-2-(3-methoxyphenyl)-N-methylpropanamide]: in experiment [1], the EC50 was 690 nM and the Emax amounted to 40%. Moreover, in experiment [2], the midpoint of the response, the EC50, lay at 11 nM and the Emax worked out at 47%.
Consider `CN(C)C(=O)c1ccc(N2CCC3(CC2)CC3CCCNC(=O)C(C)(C)c2ccccc2)cc1Cl` (stereo not drawn) [Example 7-36, 2-chloro-N,N-dimethyl-4-(1-(3-(2-methyl-2-phenylpropanamido)propyl)-6-azaspiro[2.5]octan-6-yl)benzamide], for which, in experiment [1], the “LXR alpha IP (nM)” value is reported as “No IP” and the Emax was 0%. In experiment [2], the EC50 is 525 nM and the Emax came to 57%.
As for `CC(C)[C@@](O)(C(=O)N(C)CCCC1CCN(c2ccc(C(=O)N(C)C)c(Cl)n2)CC1)C(F)(F)F` [Example 1-3, (R)-2-chloro-6-(4-(3-(2-hydroxy-N,3-dimethyl-2-(trifluoromethyl)butanamido)propyl)piperidin-1-yl)-N,N-dimethylnicotinamide], in experiment [1], the response was half-maximal at 1780 nM (EC50) and the Emax was found to be 40%. In experiment [2], the EC50 was found to be 159 nM and the Emax came to 102%.
With `CN(C)C(=O)c1ccc(N2CCC(CCCN(C)C(=O)C3(c4ccccc4)CCCC3)CC2)nc1Cl` [Example 1-42, 2-chloro-N,N-dimethyl-6-(4-(3-(N-methyl-1-phenylcyclopentanecarboxamido)pro-pyl)piperidin-1-yl)nicotinamide], in experiment [1], the “LXR alpha IP (nM)” value was “No IP” and the Emax was found to be 11%. In experiment [2], the EC50 stood at 92 nM and the Emax stood at 64%.
Consider `CN(C)C(=O)c1ccc(N2CCC(CCCNC(=O)C(O)(c3ccccc3)C(F)(F)F)CC2)nc1Cl` (stereo not drawn) [Example 5-6, 2-chloro-N,N-dimethyl-6-(4-(3-(3,3,3-trifluoro-2-hydroxy-2-phenylpropanamido)propyl)piperidin-1-yl)nicotinamide], for which, in experiment [1], the EC50 worked out at 3700 nM and the Emax turned out to be 23%. Also, in experiment [2], the half-maximal effective concentration (EC50) stood at 267 nM and the Emax worked out at 105%.
Consider `CN(C)C(=O)c1ccc(N2CCC3(CC2)CC3CCN(C)C(=O)[C@@](O)(c2ccccc2)C(F)(F)F)cc1Cl` (stereo partly drawn) [Example 7-1, 2-chloro-N,N-dimethyl-4-(1-(2-((S)-3,3,3-trifluoro-2-hydroxy-N-methyl-2-phenylpropanamido)ethyl)-6-azaspiro[2.5]octan-6-yl)benzamide], for which, in experiment [1], the EC50 was 4090 nM and the Emax stood at 10%. Further, in experiment [2], the EC50 was 342 nM and the Emax is 54%.
Take `COc1cccc([C@@](O)(C(=O)N(C)CCCC2(F)CCN(c3ccc(C(=O)N(C)C)c(Cl)c3)CC2)C(F)(F)F)c1` [Example 12-2, (R)-2-chloro-4-(4-fluoro-4-(3-(3,3,3-trifluoro-2-hydroxy-2-(3-methoxyphenyl)-N-methylpropanamido)propyl)piperidin-1-yl)-N,N-dimethylbenzamide]: in experiment [1], the “LXR alpha IP (nM)” value is recorded as “No IP” and the Emax was 4%. Also, in experiment [2], the concentration for a half-maximal effect (EC50) was determined as 218 nM and the Emax was found to be 25%.
Take `COc1cccc([C@@](O)(C(=O)N(C)CCCC2CCN(c3ccc(C(=O)N4CCC4)c(Cl)n3)CC2)C(F)(F)F)c1` [Example 2-15, (R)-N-(3-(1-(5-(azetidine-1-carbonyl)-6-chloropyridin-2-yl)piperidin-4-yl)propyl)-3,3,3-trifluoro-2-hydroxy-2-(3-methoxyphenyl)-N-methylpropanamide]: in experiment [1], the “LXR alpha IP (nM)” value is listed as “No IP” and the Emax came to 0%. In experiment [2], the EC50 was determined as 272 nM and the Emax stood at 49%.
Consider `CN(C)C(=O)c1ccc(N2CCC([C@H]3C[C@H]3CN(C)C(=O)[C@](O)(c3cccc(OC4CC4)c3)C(F)(F)F)CC2)nc1Cl` [Example 15-8, 2-chloro-6-(4-((1R,2R)-2-(((R)-2-(3-cyclopropoxyphenyl)-3,3,3-trifluoro-2-hydroxy-N-methylpropanamido)methyl)cyclopropyl)piperidin-1-yl)-N,N-dimethylnicotinamide], for which, in experiment [1], the “LXR alpha IP (nM)” value is listed as “No IP” and the Emax came to 0%. For the same compound, in experiment [2], the EC50 is 74 nM and the Emax came out at 59%.
On to `COc1cccc([C@@](O)(C(=O)NC2CC(CC3CCN(c4ccc(C(=O)N(C)C)c(Cl)c4)CC3)C2)C(F)(F)F)c1` (stereo partly drawn) [Example 11-6, (R)-2-chloro-N,N-dimethyl-4-(4-((3-(3,3,3-trifluoro-2-hydroxy-2-(3-methoxyphenyl)propanamido)cyclobutyl)methyl)piperidin-1-yl)benzamide], for which, in experiment [1], the “LXR alpha IP (nM)” value is listed as “No IP” and the Emax was 3%. Also, in experiment [2], the EC50 is 561 nM and the Emax was 54%.
With `CC(C)N(C)C(=O)c1ccc(N2CCC(CCCN(C)C(=O)[C@](O)(c3ccccc3)C(F)(F)F)CC2)cc1Cl` [Example 4-10, (R)-2-chloro-N-isopropyl-N-methyl-4-(4-(3-(3,3,3-trifluoro-2-hydroxy-N-methyl-2-phenylpropanamido)propyl)piperidin-1-yl)benzamide], in experiment [1], the “LXR alpha IP (nM)” value is “No IP” and the Emax worked out at 10%. Moreover, in experiment [2], the response was half-maximal at 162 nM (EC50) and the Emax turned out to be 67%.
`CN(C)C(=O)c1ccc(N2CCC3(CC2)CC3CCCNC(=O)[C@](O)(c2ccccc2)C(F)(F)F)cc1Cl` (stereo partly drawn) [Example 7-35, 2-chloro-N,N-dimethyl-4-(1-(3-((R)-3,3,3-trifluoro-2-hydroxy-2-phenylpropanamido)propyl)-6-azaspiro[2.5]octan-6-yl)benzamide]: in experiment [1], the “LXR alpha IP (nM)” value is recorded as “No IP” and the Emax is 0%. Also, in experiment [2], the EC50 amounted to 435 nM and the Emax came to 46%.
For the compound `CN(C)C(=O)c1ccc(N2CCC3(CC2)CC3CCCN(C)C(=O)[C@](O)(c2ccccc2)C(F)(F)F)cc1Cl` (stereo partly drawn) [Example 7-33, 2-chloro-N,N-dimethyl-4-(1-(3-((R)-3,3,3-trifluoro-2-hydroxy-N-methyl-2-phenylpropanamido)propyl)-6-azaspiro[2.5]octan-6-yl)benzamide], in experiment [1], the “LXR alpha IP (nM)” value is given as “No IP” and the Emax is 0%. In experiment [2], the EC50 worked out at 136 nM and the Emax turned out to be 44%.
Turning to `COc1cccc([C@@](O)(C(=O)N(C)C2CC(CC3CCN(c4ccc(C(=O)N(C)C)c(C)n4)CC3)C2)C(F)(F)F)c1` (single isomer, unassigned) [Example 11-1], in experiment [1], the “LXR alpha IP (nM)” value is listed as “No IP” and the Emax was 0%. For the same compound, in experiment [2], the EC50 turned out to be 727 nM and the Emax was found to be 42%.
Consider `Cc1cccc([C@@](O)(C(=O)N(C)CCCC2CCN(c3ccc(C(=O)N(C)C)c(Cl)n3)CC2)C(F)(F)F)c1` [Example 1-15, (R)-2-chloro-N,N-dimethyl-6-(4-(3-(3,3,3-trifluoro-2-hydroxy-N-methyl-2-m-tolylpropanamido)propyl)piperidin-1-yl)nicotinamide], for which, in experiment [1], the “LXR alpha IP (nM)” value is given as “No IP” and the Emax turned out to be 0%. In experiment [2], a half-maximal response (EC50) required 76 nM and the Emax stood at 55%.
